The text below walks through data of US8598126B2, “Peptides for inhibiting the HPV-E6 oncoprotein” (priority 2008, dated 2013).

Experiment [1] concerns HPV16-positive SiHa cells. As to the kind of experiment: Clonogenic survival assay, SiHa. The following applies: stable expression. Type of experiment: cell-based. From the text: HPV16-positive cell lines SiHa and MRI-H-186, HPV18-positive HeLa cells and the HPV-negative osteosarcoma cell line U-2 OS were transfected with peptide expression vectors which allowed for hygromcyin B selection (pCEP4, Invitrogen). After 6-7 days of selection, cells were fixed and stained with formaldehyde-crystal violet solution.

For experiment [2], the system named is HPV16-positive CaSki cells. As to the kind of experiment: Clonogenic survival assay, CaSki. The class given is cell-based. The following applies: stable expression.
Experiment [3] concerns the target HPV16 E6 (Human papillomavirus type 16, UniProt P03126). The following applies: FIG. 1, solubility-optimized versions and mutants.

Sequence of HPV16 E6 (P03126 whole entry): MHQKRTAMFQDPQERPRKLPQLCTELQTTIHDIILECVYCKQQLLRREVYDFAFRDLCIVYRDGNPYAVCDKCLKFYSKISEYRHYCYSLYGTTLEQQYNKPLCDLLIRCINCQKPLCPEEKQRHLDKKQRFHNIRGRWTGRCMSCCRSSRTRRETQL

Consider “E6AP peptide: E6 binding consensus motif within E6AP (SEQ ID NO: 9) (KEKEEYNSNSSSIASIGLI; E6 pep11*) [reference compound]”, for which the “growth in clonogenic survival assay” value in experiment [1] and in experiment [2] was “showed no effect” each time.
For pep11**m (EYNSNCSCIACIGLI; E6 pep11*), the “activity (binding to HPV16 E6) of pep 11 variants and mutants” value in experiment [3] is “inactive”. Also, the “growth in clonogenic survival assay” value in experiment [1] and in experiment [2] was “showed no effect” each time.
